Experimental data reported in patent US20220062281A1, “INHIBITORS TO TARGET HIV-1 NEF-CD80/CD86 IN[…] THERAPEUTIC INTERVENTION” (priority 2018, published 2022).

How the values were obtained:
[1] = molecular target: Nef interaction with CD80 (Human immunodeficiency virus type 1 group M subtype B, UniProt P04601); assay: ELISA primary screen: Nef binding to CD80 cytosolic peptide; parameters: species or system HIV-1; settings: CD80 pIC50 value, inhibition of Nef-CD80 binding
Protocol: (§1) Standard ELISA assay was used to validate the compounds as a primary screen. The basic steps of the assay are outlined in FIG. 1. The cytosolic peptides CD80, CD86 and CD74 are coated on a microplate, while CD80 and CD86 has higher binding capacity with the Nef protein, CD74 is non-specific peptide and is a peptide negative control for Nef binding. The coated plates are incubated overnight at 4° C. The plates were washed 5 times with PBS (0.02% Tween-20) before every step. After washing, the wells were blocked with 5% blotto and incubated at RT with shaking (650 rpm). The plates were washed 5 times with PBS (0.02%-tween20) after every step. Primary antibody […] anti-Nef raised in rabbit dissolved in 2.5% blotto (1:1000) were added and incubated on shaker for 1 hour at RT. Plate was washed and 100 μL anti rabbit raised in donkey dissolved in 2.5% blotto (1:11000) was added and incubated at RT for 45 min. Plate was washed with PBS and TMB substrate solution was added and incubated in dark for 5-10 min. The reaction was stopped with 1N H2SO4 and the absorbance was measured at 450 nm. Positive control (Nef) and Negative control (No peptide with Nef) were analysed for highest binding of Nef with peptide. The absorbance of the plates was measured at 450 nm.
(§2) A throughput screen was performed to pull out the actives. Standard quality control metrics like Z′ were used to qualify plates and Z′ scores were used to identify actives. The IC50 value of the compounds were further determined to evaluate the efficacy of the test compounds.
(§3) The IC50 values of the compounds have been illustrated in Table 1. […] Actives predominantly belong to compounds from Formula I, II and III with IC50s in nano or subnanomolar ranges were selected. Selected compounds were then screened in the cell-based assays systems.

[2] = molecular target: Nef interaction with CD86 (Human immunodeficiency virus type 1 group M subtype B, UniProt P04601); assay: ELISA primary screen: Nef binding to CD86 cytosolic peptide; parameters: species or system HIV-1
Protocol: as §1, §2, §3

[3] = system: Nef mediated T cell inactivation; assay: T cell activation assay (IL-2 release, B-cell line co-cultured with T cell line); type: cell-based; settings: 100 μM, B-cell line pre-exposed 1 hr, Nef via protein delivery agent, IL-2 by ELISA after 3 hrs
Excerpt: The appropriate cell system was designed to mimic the biology of the said interactions. FIG. 4(A) represents the principle behind the activation of naïve T cells by the antigen presenting cells (APC), including dendritic cells, B cells, monocytes, macrophages. The activation is based on CD80/86 co-stimulation along with CD3 activation by major histocompatibility complex (MHC) as evidenced by an increase in IL-2 release from the activated T cells.
Representative compounds from the Formula I, II and III were tested in the functional T cell assay and the results are as presented in FIG. 5. B-cell line was pre-exposed to 100 μM of the 4 compounds for 1 hr. The cells were washed and then Nef was introduced via protein delivery agent. The cells were washed again and co-cultured with T cell line. The IL-2 release (as an indicator of activation) was measured by ELISA after 3 hrs. Addition of Nef reduced the T cell activation by more than 50%.

[4] = system: Nef mediated internalization of surface CD80/86 in B/monocyte cells; assay: Cell-based phenotypic screen for downregulation of surface CD80/86 (flow cytometry); settings: 100 μM, pre-exposed 2 hrs, then infected with non-replicative retrovirus containing NEF; flow cytometry after 48-72 hrs
Excerpt: CD80 and CD86 are two major co-stimulatory cell surface proteins that are present on antigen presenting cells (APCs) and provide a co-stimulatory signal necessary for activation and survival of the naïve T cells. Both these proteins get down regulated during HIV infection via a Nef mediated pathway. It has been speculated that Nef ability to reduce CD80 and CD86 surface expression in infected cells can prevent the activation of naive T cells, necessary for an efficient recognition and elimination of the target cells. FIG. 2 illustrates that in the presence of the compounds of Formula I, Formula II or Formula III, the binding of Nef with CD80 and CD86 is inhibited thus increasing their expression. The increased expression would activate naïve T cells and aid in eliminating the infection.
Briefly monocyte/B cell lines were either delivered with Nef protein or exposed to replication deficient retrovirus and the levels of surface CD80/86 was evaluated by flow cytometry with/without compound treatment. The compounds were qualified based on the ability to reverse the down regulation of CD80/86 caused by the Nef protein. Similar quality checks were used in the secondary screen as in primary screen. Briefly, B/monocyte cells were preexposed to 100 μM of the 4 compounds for 2 hrs and then infected with non-replicative retrovirus containing NEF. The internalization of surface receptors were measured by flow cytometry after optimal infection (48-72 hrs).

Row | SMILES | IC50 [1] [nM] | IC50 [2] [nM] | reversal of Nef mediated inactivation of T cells (IL-2 release) [3] | reversal of Nef mediated internalization of CD80/86 [4]
1 | Cc1cc(C)n(-c2ncc(-c3ccc([N+](=O)[O-])cc3)cn2)n1 [Compound I1a, 2-(3,5-Dimethyl-1H-pyrazol-1-yl)-5-(4-nitrophenyl)pyrimidine] | 0.00234 |  |  | 
2 | CN(C)c1ncc(-c2ccccc2)cn1 [Compound I3a, N,N-Dimethyl-5-phenylpyrimidin-2-amine] | 0.011 |  |  | 
3 | FC(F)(F)c1ccc(-c2cnc(N3CCOCC3)nc2)cc1 [Compound I3b, 4-[5-(4-(Trifluoromethyl)phenyl)pyrimidin-2-yl]morpholine] | 0.129 | 1.62 | reversed the Nef mediated inactivation | reversal of Nef mediated internalization of CD80/86
4 | O=C(Oc1ccccc1)n1c(=S)oc2ccccc21 [II1, Phenyl 2-thioxobenzo[d]oxazole-3(2H)-carboxylate] | 0.0912 |  |  | 
5 | Cc1ccc(OC(=O)Nc2ccc(Cc3ccc(NC(=O)Oc4ccc(C)cc4)cc3)cc2)cc1 [II2d, Di-p-tolyl [methylenebis(4,1-phenylene)]dicarbamate] | 10.5 | 513 |  | 
6 | O=C(Nc1ccccc1F)Oc1ccc2ccccc2c1 [II3, Naphthalen-2-yl (2-fluorophenyl)carbamate] |  | 0.0126 | reversed the Nef mediated inactivation | reversal of Nef mediated internalization of CD80/86
7 | O=C(Nc1ccc(Cl)c(Cl)c1)Nc1cc([N+](=O)[O-])ccc1OC(=O)Nc1ccc(Cl)c(Cl)c1 [II4, 2-[3-(3,4-dichlorophenyl)ureido]-4-nitrophenyl (3,4-dichlorophenyl)carbamate] | 0.0275 | 0.275 |  | 
8 | O=C(Oc1cccc(-c2nnco2)c1)N(c1ccccc1)c1ccccc1 [II5, 3-[(1,3,4-oxadiazol-2-yl)phenyl]diphenylcarbamate] | 0.00275 |  |  | 
9 | Cc1ccc(S(=O)(=O)NNC(=O)c2ccccc2OC(=O)Nc2ccccc2)cc1 [II7, 2-[(2-Tosylhydrazine-1-carbonyl)phenyl]phenylcarbamate] | 0.0871 |  |  | 
10 | CCCOC(=O)c1ccc(NC(=O)COc2cccc(C)c2)cc1 [III1e, Propyl 4-[2-(m-tolyloxy)acetamido]benzoate] | 2.34 |  |  | 
11 | Cc1cc(C)cc(OCC(=O)Nc2ccc(C(=O)O)c(O)c2)c1 [III2a, 4-[2-(3,5-dimethylphenoxy)acetamido]-2-hydroxybenzoic acid] | 0.00447 |  | reversed the Nef mediated inactivation | reversal of Nef mediated internalization of CD80/86
12 | CC(Oc1ccccc1)C(=O)Nc1ccc(C(=O)O)cc1 (stereo not shown) [III2b, 4-(2-Phenoxypropanamido)benzoic acid] | 1.12 |  |  | 
13 | CCOC(=O)c1ccc(NC(=O)C(C)(C)Oc2ccc(Cl)cc2)cc1 [III2c, Ethyl 4-[2-(4-chlorophenoxy)-2-methylpropanamido]benzoate] | 1.51 |  |  | 
